Reference: patent publication US4657892A, “Pharmacologically active peptides” (priority 1983, dated 1987)
Entries after “also recorded” stand apart in the source; their conditions may differ. Read-outs that look alike come from different tables or passages of the source. Non-standard residues stand in square brackets, D forms with d. Residues, ends and D or L forms follow the SMILES beside them.

Legend:
[1] = system: isolated guinea-pig ileum; assay: opioid activity in the electrically stimulated guinea-pig ileum preparation; format: cell-based; conditions: for rel. value Der. = 100 / rel. value Nor. = 100: relative potency; for rel. value Der. = 100: dermorphin IC50 = 100%; for rel. value Nor. = 100: normorphine IC50 = 100%
From the text: As biological test system for determination of the opioid activity the ileum preparation of the guinea-pig was used (detailed description German application No. 29 21 216, p. 24). […] In addition for a better understanding the IC50 -value can be expressed as 100% for the opiates normorphine and dermorphin (DT-OS No. 30 34 897) and the relative activity of the single substances can be given in comparison to normorphine or dermorphine. The indication of the relative potency has the advantage that by this variations of the sensitivity of the assay are neutralized.
The (*) marked values of table 1 correspond to those which have been described by Castiglione et al. (Peptides, 2, p. 266, table 1, substances 1 and 3: column GPI=guinea-pig ileum preparation).
IC50 -values (nM), see description, of two peptides of the invention (III an IV) in comparison to those of the prior art (dermorphin,I,II) as measured in the isolated guinea-pig ileum. […] The inhibiting effect of the substances I, II, III, and IV was antagonized by addition of the specific opiate antagonist naloxone (final concentration in the organ bath 900 nM); upon further addition of the substances I to IV to the organ bath (in presence of naloxone) no further inhibition could be observed; the inhibiting effect of the substances I-IV has therefore to be considered as specific opiate-like.

[2] = molecular target: T1, α-chymotrypsin (Bos taurus, UniProt P00766, DEL14-15/DEL147-148); assay: enzymatic stability against α-chymotrypsin, remaining activity assayed on guinea-pig ileum; format: in vitro ADME; conditions: 1 mg peptide, 50 μg α-chymotrypsin, Krebs-Ringer solution, 5 hours at 37° C.
T1 construct: purchased Serva, Heidelberg
Protocol: 1 mg of each of the peptides dermorphin, I, II, III and IV (table 1) were dissolved in 1 ml freshly prepared Krebs-Ringer solution and mixed together with 50 μg α-chymotrypsin (Serva, Heidelberg, dissolved in 50 μl Krebs-Ringer solution); immediately after mixing, a 100 μl aliquot was removed and heated up to 95° C. for 15 minutes. (The heating was employed in order to inactivate the enzyme). This aliquot removed, will be later used for reference as initial value (Zero-value of incubation time). The remaining 950 μl of the peptide/enzyme mixture were incubated for 5 hours at 37° C.; the incubation period was also terminated by heating up to 95° C.
After centrifugation identical aliquots of the supernatants were assayed quantitatively for their opiate-like effect and compared with the zero-value; and guinea-pig ileum was also used as assay system (as above described).

[3] = system: isolated guinea-pig ileum; conditions: * marked, from Castiglione et al., Peptides 2, p. 266, read-out: IC50 (* values described by Castiglione et al.); cited from earlier work

Row | Compound | rel. value Der. = 100 [1] | rel. value Nor. = 100 [1] | opiate-like activity remaining after incubation with α-chymotrypsin compared to zero-value [2] | IC50 [3] | IC50 ([1]; Cavia porcellus, isolated guinea-pig ileum, 7 experiments, read-out: IC50 (inhibition of electrically induced contractions by 50%))
1 | C[C@@H](NC(=O)[C@@H](N)Cc1ccc(O)cc1)C(=O)N[C@@H](Cc1ccccc1)C(=O)NCC(=O)N[C@@H](Cc1ccc(O)cc1)C(=O)N1CCC[C@H]1C(=O)N[C@@H](CO)C(N)=O [Dermorphin] | 100 | 3143 | nearly fully destroyed | 3.5 nM | –
2 | Oc1ccc2c3c1O[C@H]1[C@@H](O)C=C[C@H]4[C@@H](C2)NCC[C@@]341 [Normorphine] | 3.2 | 100 | – | – | 110 nM
3 | C[C@@H](NC(=O)[C@@H](N)Cc1ccc(O)cc1)C(=O)N[C@@H](Cc1ccccc1)C(=O)N1CCC[C@H]1C(=O)N[C@@H](Cc1ccc(O)cc1)C(N)=O [Substance I, Tyr--D-Ala--Phe--Pro--Tyr--NH2] (H-Y[dA]FPY-NH2) | – | – | higher stability than substance II | – | –
4 | C[C@@H](NC(=O)[C@@H](N)Cc1ccc(O)cc1)C(=O)N[C@@H](Cc1ccccc1)C(=O)NCC(=O)N[C@@H](Cc1ccc(O)cc1)C(N)=O [Substance II, Tyr--D-Ala--Phe--Gly--Tyr--NH2] (H-Y[dA]FGY-NH2) | – | – | nearly fully destroyed | – | –
5 | C[C@@H](NC(=O)[C@H](Cc1ccccc1)NC(=O)[C@@H](C)NC(=O)[C@@H](N)Cc1ccc(O)cc1)C(=O)N[C@@H](Cc1ccc(O)cc1)C(N)=O [Substance III, Tyr--D-Ala--Phe--D-Ala--Tyr--NH2] (H-Y[dA]F[dA]Y-NH2) | – | – | higher stability towards proteolytic enzymes (compared to II); also recorded: full opiate-like activity | – | –
6 | C[C@@H](NC(=O)[C@H](Cc1ccccc1)NC(=O)[C@@H](C)NC(=O)[C@@H](N)Cc1ccc(O)cc1)C(=O)N[C@@H](Cc1ccccc1)C(N)=O [Substance IV, Tyr--D-Ala--Phe--D-Ala--Phe--NH2] (H-Y[dA]F[dA]F-NH2) | – | – | full opiate-like activity | – | –
